Data reported in ChEMBL document CHEMBL4028802, “DILIrank: the largest reference drug list ranked by the risk for developing drug-induced liver injury in humans” (Drug Discov Today, 2016).
Non-standard residues stand in square brackets, D forms with d. Residues, ends and D or L forms follow the SMILES beside them. dPhe(4-Cl) = N[C@H](Cc1ccc(Cl)cc1)C(=O)O; d2Nal = N[C@H](Cc1ccc2ccccc2c1)C(=O)O; dCit = NC(=O)NCCC[C@@H](N)C(=O)O; d3Pal = N[C@H](Cc1cccnc1)C(=O)O

What was measured:
Homo sapiens [1] = species on record: Homo sapiens; assay: Liver toxicity in human assessed as induction of drug-induced liver injury by measuring severity class index
Homo sapiens [2] = species on record: Homo sapiens; assay: Liver toxicity in human assessed as induction of drug-induced liver injury by measuring verified drug-induced liver injury concern status
For DILI severity class in this document: key of the grades not given here.

| SMILES | DILI_severity_class (Homo sapiens [1]) | DILI_Concern (Homo sapiens [2]) |
| --- | --- | --- |
| CC1=C(C(=O)O)N2C(=O)[C@@H](NC(=O)[C@H](N)c3ccccc3)[C@H]2SC1 [CEPHALEXIN ANHYDROUS] | 4 | Less-Dili-Concern |
| CC1=C(C(=O)O)N2C(=O)[C@@H](NC(=O)[C@H](N)C3=CCC=CC3)[C@H]2SC1 [CEPHRADINE] | 4 | Ambiguous-Dili-Concern |
| O=C(O)COCCN1CCN(C(c2ccccc2)c2ccc(Cl)cc2)CC1 (configuration not stated) [CETIRIZINE] | 3 | Less-Dili-Concern |
| CC(=O)N[C@H](Cc1ccc2ccccc2c1)C(=O)N[C@H](Cc1ccc(Cl)cc1)C(=O)N[C@H](Cc1cccnc1)C(=O)N[C@@H](CO)C(=O)N[C@@H](Cc1ccc(O)cc1)C(=O)N[C@H](CCCNC(N)=O)C(=O)N[C@@H](CC(C)C)C(=O)N[C@@H](CCCNC(=N)N)C(=O)N1CCC[C@H]1C(=O)N[C@H](C)C(N)=O [CETRORELIX] (Ac-[d2Nal][dPhe(4-Cl)][d3Pal]SY[dCit]LRP[dA]-NH2) | 3 | Ambiguous-Dili-Concern |
| CC1OC2(CS1)CN1CCC2CC1 (configuration not stated) [CEVIMELINE] | 3 | Ambiguous-Dili-Concern |
| C[C@H](CCC(=O)O)[C@H]1CC[C@H]2[C@@H]3[C@H](O)C[C@@H]4C[C@H](O)CC[C@]4(C)[C@H]3CC[C@]12C [CHENODIOL] | 8 | Ambiguous-Dili-Concern |
| O=C(O)CCCc1ccc(N(CCCl)CCCl)cc1 [CHLORAMBUCIL] | 3 | Less-Dili-Concern |
| O=C(N[C@H](CO)[C@H](O)c1ccc([N+](=O)[O-])cc1)C(Cl)Cl [CHLORAMPHENICOL] | 0 | No-Dili-Concern |
| CN1CCN(C(c2ccccc2)c2ccc(Cl)cc2)CC1 (configuration not stated) [CHLORCYCLIZINE] | 0 | Less-Dili-Concern |
| CNC1=Nc2ccc(Cl)cc2C(c2ccccc2)=[N+]([O-])C1 [CHLORDIAZEPOXIDE] | 5 | Less-Dili-Concern |
| CN1C(=O)CCS(=O)(=O)C1c1ccc(Cl)cc1 (configuration not stated) [CHLORMEZANONE] | 8 | Most-Dili-Concern |
| CCN(CC)CCCC(C)Nc1ccnc2cc(Cl)ccc12 (configuration not stated) [CHLOROQUINE] | 3 | Less-Dili-Concern |
| NS(=O)(=O)c1cc2c(cc1Cl)N=CNS2(=O)=O [CHLOROTHIAZIDE] | 2 | Less-Dili-Concern |
| CN(C)CCC(c1ccc(Cl)cc1)c1ccccn1 (configuration not stated) [CHLORPHENIRAMINE] | 0 | No-Dili-Concern |
| CN(C)CCCN1c2ccccc2Sc2ccc(Cl)cc21 [CHLORPROMAZINE] | 2 | Less-Dili-Concern |
| CCCNC(=O)NS(=O)(=O)c1ccc(Cl)cc1 [CHLORPROPAMIDE] | 2 | Less-Dili-Concern |
| NS(=O)(=O)c1cc(C2(O)NC(=O)c3ccccc32)ccc1Cl (configuration not stated) [CHLORTHALIDONE] | 2 | Ambiguous-Dili-Concern |
| Nc1ccn(C[C@@H](CO)OCP(=O)(O)O)c(=O)n1.O.O [CIDOFOVIR] | 5 | Ambiguous-Dili-Concern |
| O=C1CCc2cc(OCCCCc3nnnn3C3CCCCC3)ccc2N1 [CILOSTAZOL] | 5 | Ambiguous-Dili-Concern |

| SMILES | DILI_severity_class (Homo sapiens [1]) | DILI_Concern (Homo sapiens [2]) |
| --- | --- | --- |
| CN/C(=N/CCSCc1nc[nH]c1C)NC#N [CIMETIDINE] | 2 | Less-Dili-Concern |
| O=C(O)c1cc(-c2ccccc2)nc2ccccc12 [CINCHOPHEN] | 8 | Most-Dili-Concern |
| O=C(O)c1cn(C2CC2)c2cc(N3CCNCC3)c(F)cc2c1=O [CIPROFLOXACIN] | 7 | Most-Dili-Concern |
| COc1ccc(C[C@@H]2c3cc(OC)c(OC)cc3CC[N@+]2(C)CCC(=O)OCCCCCOC(=O)CC[N@@+]2(C)CCc3cc(OC)c(OC)cc3[C@H]2Cc2ccc(OC)c(OC)c2)cc1OC.O=S(=O)([O-])c1ccccc1.O=S(=O)([O-])c1ccccc1 [CISATRACURIUM BESYLATE] | 0 | No-Dili-Concern |
| CN(C)CCCC1(c2ccc(F)cc2)OCc2cc(C#N)ccc21 (configuration not stated) [CITALOPRAM] | 7 | Less-Dili-Concern |
| Nc1nc(Cl)nc2c1ncn2[C@H]1C[C@H](O)[C@@H](CO)O1 [CLADRIBINE] | 3 | Ambiguous-Dili-Concern |
| CC[C@H]1OC(=O)[C@H](C)[C@@H](O[C@H]2C[C@@](C)(OC)[C@@H](O)[C@H](C)O2)[C@H](C)[C@@H](O[C@@H]2O[C@H](C)C[C@H](N(C)C)[C@H]2O)[C@](C)(OC)C[C@@H](C)C(=O)[C@H](C)[C@@H](O)[C@]1(C)O [CLARITHROMYCIN] | 8 | Most-Dili-Concern |
| CN1CCC[C@@H]1CCO[C@](C)(c1ccccc1)c1ccc(Cl)cc1 [CLEMASTINE] | 0 | No-Dili-Concern |
| CCCC(=O)OCOC(=O)C1=C(C)NC(C)=C(C(=O)OC)C1c1cccc(Cl)c1Cl (configuration not stated) [CLEVIDIPINE] | 0 | No-Dili-Concern |
| CCC[C@@H]1C[C@@H](C(=O)N[C@@H]([C@H]2O[C@H](SC)[C@H](OP(=O)(O)O)[C@@H](O)[C@H]2O)[C@H](C)Cl)N(C)C1 [CLINDAMYCIN PHOSPHATE] | 3 | Ambiguous-Dili-Concern |
| CCC[C@@H]1C[C@@H](C(=O)N[C@@H]([C@H]2O[C@H](SC)[C@H](O)[C@@H](O)[C@H]2O)[C@H](C)Cl)N(C)C1 [CLINDAMYCIN] | 3 | Less-Dili-Concern |
| Nc1nc(Cl)nc2c1ncn2[C@@H]1O[C@H](CO)[C@@H](O)[C@@H]1F [CLOFARABINE] | 8 | Ambiguous-Dili-Concern |
| CCOC(=O)C(C)(C)Oc1ccc(Cl)cc1 [CLOFIBRATE] | 3 | Less-Dili-Concern |
| CN(C)CCCC1c2ccccc2Nc2ccc(Cl)cc21 (configuration not stated) [CLOMACRAN] | 8 | Most-Dili-Concern |
| COc1ccc2c(C(=O)c3ccc(Cl)cc3)c(C)n(CC(=O)O)c2c1 [CLOMETACIN] | 8 | Most-Dili-Concern |
| CCN(CC)CCOc1ccc(C(=C(Cl)c2ccccc2)c2ccccc2)cc1 [CLOMIPHENE] | 3 | Less-Dili-Concern |
| CN(C)CCCN1c2ccccc2CCc2ccc(Cl)cc21 [CLOMIPRAMINE] | 8 | Most-Dili-Concern |
| O=C1CN=C(c2ccccc2Cl)c2cc([N+](=O)[O-])ccc2N1 [CLONAZEPAM] | 3 | Less-Dili-Concern |
| Clc1cccc(Cl)c1N=C1NCCN1 [CLONIDINE] | 3 | Ambiguous-Dili-Concern |

| SMILES | DILI_severity_class (Homo sapiens [1]) | DILI_Concern (Homo sapiens [2]) |
| --- | --- | --- |
| COC(=O)[C@H](c1ccccc1Cl)N1CCc2sccc2C1 [CLOPIDOGREL] | 7 | Less-Dili-Concern |
| O=C(O)C1N=C(c2ccccc2)c2cc(Cl)ccc2NC1=O (configuration not stated) [CLORAZEPIC ACID] | 3 | Ambiguous-Dili-Concern |
| Clc1ccccc1C(c1ccccc1)(c1ccccc1)n1ccnc1 [CLOTRIMAZOLE] | 3 | Less-Dili-Concern |
| Cc1onc(-c2ccccc2Cl)c1C(=O)N[C@@H]1C(=O)N2[C@@H]1SC(C)(C)[C@@H]2C(=O)O [CLOXACILLIN] | 3 | Less-Dili-Concern |
| CN1CCN(C2=Nc3cc(Cl)ccc3Nc3ccccc32)CC1 [CLOZAPINE] | 5 | Most-Dili-Concern |
| COc1ccc2c3c1O[C@H]1[C@@H](O)C=C[C@H]4[C@@H](C2)N(C)CC[C@@]341 [CODEINE] | 0 | No-Dili-Concern |
| COc1cc2c(c(OC)c1OC)-c1ccc(OC)c(=O)cc1[C@@H](NC(C)=O)CC2 [COLCHICINE] | 6 | Ambiguous-Dili-Concern |
| Cc1nc2c([nH]1)-c1ccccc1N(C(=O)c1ccc(NC(=O)c3ccccc3-c3ccccc3)cc1)CC2 [CONIVAPTAN] | 0 | No-Dili-Concern |
| CC(=O)OCC(=O)[C@@]1(O)CC[C@H]2[C@@H]3CCC4=CC(=O)CC[C@]4(C)[C@H]3C(=O)C[C@@]21C [CORTISONE ACETATE] | 0 | No-Dili-Concern |
| CN(C)CCC=C1c2ccccc2C=Cc2ccccc21 [CYCLOBENZAPRINE] | 5 | Less-Dili-Concern |
| CC(=O)Oc1ccc(C(=C2CCCCC2)c2ccc(OC(C)=O)cc2)cc1 [CYCLOFENIL] | 8 | Most-Dili-Concern |
| O=P1(N(CCCl)CCCl)NCCCO1 (configuration not stated) [CYCLOPHOSPHAMIDE ANHYDROUS] | 5 | Less-Dili-Concern |
| N[C@@H]1CON=C1O [CYCLOSERINE] | 3 | Ambiguous-Dili-Concern |
| CN1CCC(=C2c3ccccc3C=Cc3ccccc32)CC1 [CYPROHEPTADINE] | 7 | Less-Dili-Concern |
| NCCS [CYSTEAMINE] | 3 | Ambiguous-Dili-Concern |
| N[C@@H](CS)C(=O)O [CYSTEINE] | 3 | Ambiguous-Dili-Concern |
| Nc1ccn([C@@H]2O[C@H](CO)[C@@H](O)[C@@H]2O)c(=O)n1 [CYTARABINE] | 3 | Most-Dili-Concern |
| CN(C)/N=N/c1[nH]cnc1C(N)=O [DACARBAZINE] | 6 | Most-Dili-Concern |
